Measured values from patent US20090111818A1, “Combinations of Eszopiclone and O-Desmethylvenlafaxine, and Methods of Treatment of Menopause and Mood, Anxiety, and Cognitive Disorders” (SEPRACOR INC., priority 2005, published 2009).

How the values were obtained:
[1] = in vivo; cited from earlier work
norepinephrine uptake = details: in vitro; cited from earlier work
dopamine uptake = details: in vitro; cited from earlier work
[2] = tested on: norepinephrine synaptosomal uptake; details: cited from earlier work
[3] = tested on: women with insomnia secondary to perimenopause or menopause; test: Clinical study of eszopiclone 3 mg vs placebo: number of nocturnal awakenings due to hot flashes; type: in vivo, human; details: Week 1; 3 mg nightly; p<0.0001
Method: The study was aimed at observing efficacy of eszopiclone 3 mg compared to placebo in the treatment of insomnia secondary to perimenopause or menopause.
The study was a multicenter, randomized, double-blind, placebo-controlled, parallel-group study. […] The primary method of analysis compared the post-randomization results between the two treatment groups.
Subjects were women with insomnia secondary to perimenopause or menopause. Subjects were perimenopausal or menopausal and had insomnia symptoms including ≧45 minutes sleep latency (SL) and total sleep time (TST) ≦6 hours. Perimenopausal/menopausal symptoms predated the onset of sleep disturbance symptoms. The patient population was predominately Caucasian (77.2%). The mean age was 49, with a range of 40-60.
A total of 410 subjects were randomized. Among them, 201 received 3 mg of eszopiclone (ESZ) nightly (at bedtime) for four weeks and 209 received matching placebo (PBO).

CN(C)CC(c1ccc(O)cc1)C1(O)CCCCC1 (racemic) [O-desmethylvenlafaxine, (±)-1-[2-(dimethylamino)-1-(4-hydroxyphenyl)ethyl]-cyclohexanol]
half-life (t½) [1]: about 10 hours | half-life relative to that of venlafaxine [1]: approximately 2.5 times | inhibition of norepinephrine uptake compared with the parent compound venlafaxine (norepinephrine uptake): more potent inhibitor | inhibition of dopamine uptake compared with the parent compound venlafaxine (dopamine uptake): more potent inhibitor

COc1ccc(C(CN(C)C)C2(O)CCCCC2)cc1 (single isomer, unassigned) [venlafaxine (−) enantiomer]
inhibition of norepinephrine synaptosomal uptake, comparison of enantiomers [2]: more potent inhibitor

CN1CCN(C(=O)O[C@H]2c3nccnc3C(=O)N2c2ccc(Cl)cn2)CC1 [Eszopiclone, (+) 6-(5-chloropyrid-2-yl)-5-(4-methylpiperazin-1-yl)carbonyloxy-7-oxo-6,7-dihydro-5H-pyrrolo[3-4-b]pyrazine]
change from baseline in number of nocturnal awakenings due to hot flashes compared with PBO [3]: significantly reduced
